From patent US5563037A, “Homogeneous method for assay of double-stranded nucleic acids using fluorescent dyes and kit useful therein” (Johnson & Johnson Clinical Diagnostics, Inc., priority 1995, dated 1996)
pKd: −log10 of the molar value.

Legend:
[1] = target: double-stranded nucleic acids; experiment: Binding constant (Kb) of fluorescent dye with double-stranded nucleic acids; conditions: Kp from Molecular Probes catalog divided by 55
Excerpt: The fluorescent dyes useful herein are generally defined as unsymmetrical cyanine dyes having a binding constant (Kb) within the range of from about 1×104 to about 5×105 (molar^-1). As used to define Kb, "about" refers to a variance of 10%. The dyes are also water-soluble or water-dispersible so they can bind to the nucleic acids in the aqueous reaction mixture. Depending upon the anions used, the dyes may be dissolved in a water-miscible solvent.
Particularly useful fluorescent dyes are commercially available from Molecular Probes, Inc. having the trade names and Kp values listed in Table I below. However, this invention is not to be construed as limited to the particular Molecular Probes, Inc. dyes listed therein since these are but preferred dyes. The cations of these preferred dyes are also identified below by chemical structure. The compounds can include any suitable divalent anion, or two monovalent anions. Iodide is preferred. [drawing 3]
*The Kb values in the table were calculated by dividing the partitio
coefficient (Kp) reported in the Molecular Probes, Inc. catalog, page 224
by 55, the molarity of water.

HIV-I DNA [2] = experiment: Example 2: leuco dye color scores of amplified target in pouches; format: biochemical; conditions: dye added prior to amplification
Procedure: The method of this invention was compared to an amplification and detection method outside the scope of this invention, which was carried out using YOYO-1 (1 μmolar final concentration), a tetravalent fluorescent dye, in the buffered solution described above. This dye has the following structure: [drawing 4]
Amplification was carried out using self-contained chemical pouches such as those described in U.S. Pat. No. 5,229,297 (Schnipelsky et al). Those pouches contained the capture probe SEQ ID NO:5 attached to particles which were immobilized in a detection channel where reactions can take place.
The pouches were loaded with reagents, as follows:
The PCR reaction mixture of Example 1 (except the DNA polymerase) was made to a volume of 5472 μl. The resulting mixture was aliquoted into tubes A, B and C (1824 μl each) representing Samples A, B and C, respectively.
The sample in Tube A was diluted with buffer (220 μl) and subjected to amplification without any fluorescence dye present. The dye was added at the end of amplification for quantitative detection of the resulting products.
In addition to the PCR reagents, the sample in Tube B contained YOYO-1 fluorescent dye (0.1 μmolar) which had been added prior to amplification (220 μl of a 10 μmolar solution).
The sample in Tube C also contained YO-PRO-1 fluorescent dye (0.1 μmolar) which had been added prior to amplification (220 μl of a 10 μmolar solution).
The DNA polymerase (88 μl) and target HIV-I DNA target nucleic acid (220 μl) were then added to each tube, and the contents of the each of the three tubes were used to fill the PCR reagent compartment of eight pouches.
Amplification was carried out using the same procedures as in Example 1. The PCR protocol was similarly carried out for 40 cycles using a thermal cycler as follows:
1) Preheat to denature at 95° C. for 60 seconds,
priming and extension for 40 seconds at 63.5° C., and denaturation for 10 seconds at 95° C., and
3) final denaturation for 60 seconds at 95° C.
The results of amplification were detected in three ways: (1) color dye scores visually evaluated as 0 (no signal) to 10 (highest signal density), (2) ethidium bromide stained electrophoretic gels, and (3) fluorescence measured on a commercially available Perkin Elmer fluorimeter.
The noted color scores were obtained by using immobilized capture probes in the pouches with which the amplified target hybridized during incubation for 5 minutes at 42° C. The immobilized target was contacted with the conjugate solution (identified above) for 1 minute at 30° C., followed by the wash solution for 1 minute at 55° C. The leuco dye solution was then added at 30° C. and the resulting color signal was observed after two minutes incubation at 30° C. […]

HIV-I DNA [3] = experiment: Example 2: ethidium bromide stained electrophoretic gels of amplification products; format: biochemical; conditions: dye added prior to amplification
Procedure: The method of this invention was compared to an amplification and detection method outside the scope of this invention, which was carried out using YOYO-1 (1 μmolar final concentration), a tetravalent fluorescent dye, in the buffered solution described above. This dye has the following structure: [drawing 4] The PCR reaction mixture of Example 1 (except the DNA polymerase) was made to a volume of 5472 μl. The resulting mixture was aliquoted into tubes A, B and C (1824 μl each) representing Samples A, B and C, respectively. The sample in Tube A was diluted with buffer (220 μl) and subjected to amplification without any fluorescence dye present. The dye was added at the end of amplification for quantitative detection of the resulting products. In addition to the PCR reagents, the sample in Tube B contained YOYO-1 fluorescent dye (0.1 μmolar) which had been added prior to amplification (220 μl of a 10 μmolar solution). The sample in Tube C also contained YO-[…] fluorescent dye (0.1 μmolar) which had been added prior to amplification (220 μl of a 10 μmolar solution). The DNA polymerase (88 μl) and target HIV-I DNA target nucleic acid (220 μl) were then added to each tube, and the contents of the each of the three tubes were used to fill the PCR reagent compartment of eight pouches. Amplification was carried out using the same procedures as in Example 1. […] follows: The results of amplification were detected in three ways: (1) color dye scores visually evaluated as 0 (no signal) to 10 (highest signal density), (2) ethidium bromide stained electrophoretic gels, and (3) fluorescence measured on a commercially available Perkin Elmer fluorimeter. Electrophoresis was carried out using commercially available NuSieve 1.5%/Seakem Agarose 1% gels (modified to 2.5% agarose) and ethidium bromide stain. The samples were applied to the gels in conventional TBE buffer (4 μl/100 μl). Three replicate assays of each sample (A, B and C) were carried out using each detection means. The average result for each detection means was as follows: […]

SMILES: C[n+]1c(C=C2C=CN(CCC[N+](C)(C)C)c3ccccc32)oc2ccccc21 [Compound E]
- pKd [1]: 5.18
- effect of dye on amplification (color scores) (HIV-I DNA [2]): not adversely affected
- Average Color Score (HIV-I DNA [2]; leuco dye, 0 (no signal) to 10 (highest signal density), 40 cycles): 6
- effect of dye on amplification (gel) (HIV-I DNA [3]): allowed amplification to proceed
- Positive/negative Gel Bands (HIV-I DNA [3]; 40 cycles): 5 Positives out of 5 bands
